Where a name gives a salt, the structure may show the parent alone. Read-outs that look alike come from different tables or passages of the source.
Legend:
[1] = values from Whiting article; cited from earlier work
[2] = titratable acidity of calcium sources; type: physicochemical; conditions: pH 3.5 raised to pH 8.3, 40 g sample
Text: Acidity is desired in the liquid nutritional product of the present invention for several reasons such as: to maintain the calcium salt solubility, to complement flavor, to control microbial growth, and to enhance the role of preservatives, specifically potassium benzoate or sodium benzoate. On the other hand, too much acidity can result in increased tartness and sourness that make the product undesirable from a sensory point of view. […] Titratable acidity is an indication of the total acidity of a beverage.

[3] = large amounts; cited from earlier work
[4] = without aluminum-containing drugs; cited from earlier work
[5] = rats, three weeks, as compared to a control; cited from earlier work
[6] = Method: In this evaluation solubility was determined by a visual examination.
[7] = cited from earlier work
[8] = low birth weight infants; cited from earlier work
[9] = piglets; cited from earlier work

**Q.** For `O=C(O)O` [CaCO3 (from Dolomite)], which “Aluminum Content” value [1] is on record?
**A.** Its value is 171-315 parts per million (ppm).

**Q.** Which “Aluminum Content” value [1] does the source give for `O=C(O)O` [CaCO3 (from fossil shell)] here?
**A.** The value was 4,400 parts per million (ppm).

**Q.** Which results are given for `O=C(O)O` [Calcium Carbonate, calcium carbonate]?
**A.** Titratable acidity [2]: 61.4 mL of 0.1N NaOH; adverse effects [3]: can lead to constipation and abdominal distention

**Q.** With `[Ca+2].[Cl-].[Cl-]` [Calcium Chloride, calcium chloride] as the compound, how does the Titratable acidity [2] read?
**A.** The Titratable acidity was 0.7 mL of 0.1N NaOH.

**Q.** Which aluminum toxicity risk [4] does the source give for `O=C(O)CC(O)(CC(=O)O)C(=O)O` [Calcium Citrate, calcium citrate] here?
**A.** Its aluminum toxicity risk is “does not pose a risk of aluminum toxicity”.

**Q.** And the relative calcium bioavailability [5]?
**A.** The relative calcium bioavailability was 110%.

**Q.** And the Titratable acidity [2]?
**A.** The Titratable acidity was 57.5 mL of 0.1N NaOH.

**Q.** With `[Ca+2].[OH-].[OH-]` [Calcium Hydroxide, calcium hydroxide] as the compound, how does the Titratable acidity [2] read?
**A.** Its Titratable acidity is 60.6 mL of 0.1N NaOH.

**Q.** Which Titratable acidity [2] does the source give for `CC(O)C(=O)O` (centres unmarked) [Calcium Lactate, calcium lactate] here?
**A.** The Titratable acidity was 47.1 mL of 0.1N NaOH.

**Q.** Which results are given for `O=C(O)[C@H](O)[C@@H](O)[C@H](O)[C@H](O)CO` [D-Gluconic-Acid, D-gluconic acid (hemicalcium salt)]?
**A.** solubility at time of manufacture ([6]; pH 3.5): soluble; solubility at 1 month ([6]; pH 5): partially Soluble; solubility at time of manufacture ([6]; pH 5): soluble

**Q.** What does the source list for `O=P([O-])([O-])[O-].O=P([O-])([O-])[O-].[Ca+2].[Ca+2].[Ca+2]` [Tricalcium Phosphate, tricalcium phosphate]?
**A.** relative calcium bioavailability [5]: 110%; Titratable acidity [2]: 48.6 mL of 0.1N NaOH

**Q.** For `O=P(O)(O)OCC(O)CO` (centres unmarked) [glycerophosphate], which pKf [7] is on record?
**A.** Its pKf is 6.1.

**Q.** With calcium citrate malate as the compound, how does the Titratable acidity [2] read?
**A.** Its Titratable acidity is 53.2 mL of 0.1N NaOH.

**Q.** With calcium glycerophosphate [CaGP] as the compound, how does the “effectiveness as source of calcium in TPN solutions” value [8] read?
**A.** The value was “as effective as calcium gluconate”.

**Q.** What about the Titratable acidity [2] of the same compound?
**A.** The Titratable acidity was 43.5 mL of 0.1N NaOH.

**Q.** And the “effectiveness as source of calcium in TPN solutions” value [9]?
**A.** Its value is “as effective as calcium gluconate”.
